Measured values: US20200383926A1, “ENTERIC COATED PHARMACEUTICAL COMPOSITION AND USE THEREOF” (SHIN ERA TECHNOLOGY CO. LTD., priority 2017, published 2020)

Test: Phosphate binding assay (molybdate colorimetry, OD700) at pH 8.3
Details: KH2PO4 0.53M, room temperature (about 25° C.), 2 hours
Method: Since the phosphate uptake in human body mostly takes place in the intestine instead of stomach, we tested the phosphate-binding ability of the aforesaid 60% deacetylation chitosan citrate (CHS-60L) and 90% deacetylation chitosan citrate (CHS-90L) in an environment of pH 8.3, which mimicked to the intestine environment in vivo.
Briefly, KH2PO4 and the present chitosan citrate were mixed at room temperature (about 25° C.) for 2 hours. Then, 2 μl of the mixture of each group (and KH2PO4 without reaction with binding agents) was mixed with 120 μl of acetate buffer (0.1 N acetic acid and 0.025 N of CH3COONa), 12 μl of ascorbic acid (1 wt %), and […] of NH4MoO4 (1%, in 0.05 N H2SO4) at room temperature for 20 to 30 minutes. After that, the OD700 of the mixture was detected by spectrometer. The conventional phosphate binding agent, calcium carbonate, was used as positive control of the experiment.

O=C([O-])[O-].[Ca+2] [calcium carbonate]
Binding ability (%) (binding agent 10 mM): 70.90%
Binding ability (%) (binding agent 20 mM): 75.40%
